Experimental findings from patent US10399940B2, “Substituted pyrrolidines and methods of use” (AbbVie S.à.r.l., priority 2016, dated 2019) are described below.

Read-outs that look alike come from different tables or passages of the source.

The experiment concerns the target T1, F508delCFTR (Homo sapiens, UniProt P13569, DEL508-508).
T1 construct: expressed in transfected cells; host or cells: CFBE41o- (human lung derived epithelial cell line), doxycycline-inducible expression
In words: Cell Surface Expression-Horse Radish Peroxidase (CSE-HRP) assay. It is filed as cell-based. To be noted: CFBE41o-F508delCFTR-HRP cells; for Maximum % activity (with co-corrector): with co-corrector (2 μM); for Maximum % activity (with co-corrector) / Maximum % activity (without co-corrector): normalized to on-plate positive control, highest concentration 20 μM. In outline: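 CFBE41o- cells expressed F508delCFTR with HRP in the fourth exofacial loop, induced by 0.5 μg/mL doxycycline for 72 h at 37 °C. Compounds alone or with 2 μM co-corrector ran 18–24 h at 33 °C, 8-point 3-fold from 20 μM. Washed-cell luminol luminescence was normalized to DMSO and positive control, fitted sigmoidally for EC50 (three plates).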

Where [1] appears, read: test compound without co-corrector, 18-24 hours at 33° C., read-out: EC50 (without co-corrector).
Setting [2] is: with co-corrector (2 μM of 3-[(2R,4R)-4-({[1-(2,2-difluoro-1,3-benzodioxol-5-yl)cyclopropyl]carbonyl}amino)-7-methoxy-3,4-dihydro-2H-chromen-2-yl]benzoic acid), read-out: EC50 (with co-corrector).

T1 sequence (P13569 with tags, fused parts or gaps DEL508-508): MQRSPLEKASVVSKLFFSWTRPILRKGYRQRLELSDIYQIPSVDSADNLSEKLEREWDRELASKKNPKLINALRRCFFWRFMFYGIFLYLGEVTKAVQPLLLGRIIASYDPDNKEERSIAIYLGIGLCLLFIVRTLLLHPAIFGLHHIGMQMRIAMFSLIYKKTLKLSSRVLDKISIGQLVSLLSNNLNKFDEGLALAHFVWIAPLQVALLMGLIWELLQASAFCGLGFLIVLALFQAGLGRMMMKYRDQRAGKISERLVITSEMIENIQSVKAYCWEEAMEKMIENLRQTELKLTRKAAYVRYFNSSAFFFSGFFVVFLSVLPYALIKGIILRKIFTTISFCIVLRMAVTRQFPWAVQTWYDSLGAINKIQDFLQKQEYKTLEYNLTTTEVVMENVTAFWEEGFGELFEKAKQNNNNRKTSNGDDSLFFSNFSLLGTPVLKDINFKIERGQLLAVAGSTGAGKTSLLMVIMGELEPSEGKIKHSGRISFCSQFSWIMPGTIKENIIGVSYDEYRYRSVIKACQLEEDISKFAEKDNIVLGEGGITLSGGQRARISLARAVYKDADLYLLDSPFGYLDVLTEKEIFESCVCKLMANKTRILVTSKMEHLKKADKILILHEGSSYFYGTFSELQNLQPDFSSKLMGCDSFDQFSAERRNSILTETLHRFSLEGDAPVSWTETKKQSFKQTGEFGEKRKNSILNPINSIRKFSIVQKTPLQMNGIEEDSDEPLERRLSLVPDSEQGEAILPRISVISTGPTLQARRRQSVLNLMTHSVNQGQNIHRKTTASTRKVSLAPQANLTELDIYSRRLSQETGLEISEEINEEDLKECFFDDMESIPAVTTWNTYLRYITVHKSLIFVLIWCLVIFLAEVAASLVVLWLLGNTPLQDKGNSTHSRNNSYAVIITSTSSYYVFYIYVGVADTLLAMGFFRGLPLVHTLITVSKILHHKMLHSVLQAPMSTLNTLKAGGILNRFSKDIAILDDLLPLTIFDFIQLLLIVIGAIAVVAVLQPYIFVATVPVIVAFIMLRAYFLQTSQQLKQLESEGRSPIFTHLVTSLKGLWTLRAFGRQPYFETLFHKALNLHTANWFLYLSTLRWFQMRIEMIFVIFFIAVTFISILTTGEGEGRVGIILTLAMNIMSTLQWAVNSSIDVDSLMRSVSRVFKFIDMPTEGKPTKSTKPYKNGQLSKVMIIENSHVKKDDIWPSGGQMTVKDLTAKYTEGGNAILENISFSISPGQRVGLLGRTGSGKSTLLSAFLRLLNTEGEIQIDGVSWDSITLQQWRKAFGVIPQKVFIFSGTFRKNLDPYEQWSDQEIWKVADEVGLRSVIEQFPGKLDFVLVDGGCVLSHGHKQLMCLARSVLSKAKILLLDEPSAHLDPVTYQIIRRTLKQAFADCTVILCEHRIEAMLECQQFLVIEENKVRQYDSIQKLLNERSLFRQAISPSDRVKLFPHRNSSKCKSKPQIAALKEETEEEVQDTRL

As usually defined, the EC50 is the concentration at which the effect is half-maximal. For the compound `COc1ncc(C2CCC2)cc1CO[C@H]1[C@H](C(C)(C)C)[C@@H](C(=O)O)N(C(=O)OC(C)C)[C@H]1c1ccccc1F` [Example 77, (2S,3R,4S,5S)-3-tert-butyl-4-[(5-cyclobutyl-2-methoxypyridin-3-yl)methoxy]-5-(2-fluorophenyl)-1-{[(propan-2-yl)oxy]carbonyl}pyrrolidine-2-carboxylic acid], the “Maximum % activity (with co-corrector)” value is “+++ (≥350)”; the “Maximum % activity (without co-corrector)” value was “++ (≥100 and <200)”. The EC50 under setting [1] was 1000 to 10000 nM. Moreover, the EC50 under setting [2] lay within 1000 to 10000 nM.
On to `COc1ccc(C(F)(F)F)cc1CO[C@H]1[C@H](C(C)(C)C)[C@@H](C(=O)O)N(C(=O)OC(C)C)[C@H]1c1cccnc1OC(C)C` [Example 78, (2S,3R,4S,5S)-3-tert-butyl-4-{[2-methoxy-5-(trifluoromethyl)phenyl]methoxy}-1-{[(propan-2-yl)oxy]carbonyl}-5-{2-[(propan-2-yl)oxy]pyridin-3-yl}pyrrolidine-2-carboxylic acid], for which the “Maximum % activity (with co-corrector)” value is given as “+++ (≥350)”; the “Maximum % activity (without co-corrector)” value is “++ (≥100 and <200)”. Besides, the EC50 under setting [1] lay in the range of 1000 to 10000 nM. Moreover, under setting [2], the EC50 was 1000 to 10000 nM.
For the compound `COc1ncc(C(F)(F)F)cc1CO[C@H]1[C@H](C(C)(C)C)[C@@H](C(=O)O)N(C(=O)OC(C)C)[C@H]1c1cccc(Cl)c1` [Example 79, (2S,3R,4S,5S)-3-tert-butyl-5-(3-chlorophenyl)-4-{[2-methoxy-5-(trifluoromethyl)pyridin-3-yl]methoxy}-1-{[(propan-2-yl)oxy]carbonyl}pyrrolidine-2-carboxylic acid], the “Maximum % activity (with co-corrector)” value is “++ (≥150 and <350)”; the “Maximum % activity (without co-corrector)” value is recorded as “+ (<100)”. Under setting [1], the EC50 was in the range of 1000 to 10000 nM. Moreover, the EC50 under setting [2] fell in the range of 1000 to 10000 nM.
Turning to `COc1ncc(C(C)(C)C)cc1CO[C@H]1[C@H](C(C)(C)C)[C@@H](C(=O)O)N(C(=O)OC(C)C)[C@H]1c1cccc(Cl)c1` [Example 80, (2S,3R,4S,5S)-3-tert-butyl-4-[(5-tert-butyl-2-methoxypyridin-3-yl)methoxy]-5-(3-chlorophenyl)-1-{[(propan-2-yl)oxy]carbonyl}pyrrolidine-2-carboxylic acid], the “Maximum % activity (with co-corrector)” value was “++ (≥150 and <350)”; the “Maximum % activity (without co-corrector)” value is reported as “+ (<100)”. For the same compound, the concentration giving a half-maximal response (EC50) under setting [1] fell in the range of 1000 to 10000 nM. Further, the EC50 under setting [2] is 1000 to 10000 nM.
Consider `COc1ncc(N2CCCCC2)cc1CO[C@H]1[C@H](C(C)(C)C)[C@@H](C(=O)O)N(C(=O)OC(C)C)[C@H]1c1ccccc1` [Example 81, (2S,3R,4S,5S)-3-tert-butyl-4-{[2-methoxy-5-(piperidin-1-yl)pyridin-3-yl]methoxy}-5-phenyl-1-{[(propan-2-yl)oxy]carbonyl}pyrrolidine-2-carboxylic acid], for which the “Maximum % activity (with co-corrector)” value was “++ (≥150 and <350)”; the “Maximum % activity (without co-corrector)” value was “+ (<100)”. Moreover, the EC50 under setting [1] was in the range of 1000 to 10000 nM. Further, the EC50 under setting [2] was 1000 to 10000 nM.
`COc1ncc(N2CCCC2)cc1CO[C@H]1[C@H](C(C)(C)C)[C@@H](C(=O)O)N(C(=O)OC(C)C)[C@H]1c1ccccc1` [Example 82, (2S,3R,4S,5S)-3-tert-butyl-4-{[2-methoxy-5-(pyrrolidin-1-yl)pyridin-3-yl]methoxy}-5-phenyl-1-{[(propan-2-yl)oxy]carbonyl}pyrrolidine-2-carboxylic acid]: the “Maximum % activity (with co-corrector)” value is “++ (≥150 and <350)”; the “Maximum % activity (without co-corrector)” value is recorded as “+ (<100)”. For the same compound, under setting [1], the EC50 fell in the range of 1000 to 10000 nM. The concentration giving a half-maximal response (EC50) under setting [2] lay in the range of 1000 to 10000 nM.
Consider `COc1ncc(C(F)(F)F)cc1CO[C@H]1[C@H](C(C)(C)C)[C@@H](C(=O)O)N(C(=O)OC(C)C)[C@H]1c1ccccc1C` [Example 83, (2S,3R,4S,5S)-3-tert-butyl-4-{[2-methoxy-5-(trifluoromethyl)pyridin-3-yl]methoxy}-5-(2-methylphenyl)-1-{[(propan-2-yl)oxy]carbonyl}pyrrolidine-2-carboxylic acid], for which the “Maximum % activity (with co-corrector)” value is listed as “+++ (≥350)”; the “Maximum % activity (without co-corrector)” value is “++ (≥100 and <200)”. The EC50 under setting [1] lay in the range of 1000 to 10000 nM. For the same compound, under setting [2], the EC50 is under 1000 nM.
As to `COc1ncc(N2CC(F)(F)C2)cc1CO[C@H]1[C@H](C(C)(C)C)[C@@H](C(=O)O)N(C(=O)OC(C)C)[C@H]1c1ccccc1` [Example 84, (2S,3R,4S,5S)-3-tert-butyl-4-{[5-(3,3-difluoroazetidin-1-yl)-2-methoxypyridin-3-yl]methoxy}-5-phenyl-1-{[(propan-2-yl)oxy]carbonyl}pyrrolidine-2-carboxylic acid], the “Maximum % activity (with co-corrector)” value is “++ (≥150 and <350)”; the “Maximum % activity (without co-corrector)” value was “+ (<100)”. Under setting [1], the EC50 lay within 1000 to 10000 nM. For the same compound, under setting [2], the EC50 was 1000 to 10000 nM.
As to `COc1ncc(N2CCC(F)(F)C2)cc1CO[C@H]1[C@H](C(C)(C)C)[C@@H](C(=O)O)N(C(=O)OC(C)C)[C@H]1c1ccccc1` [Example 85, (2S,3R,4S,5S)-3-tert-butyl-4-{[5-(3,3-difluoropyrrolidin-1-yl)-2-methoxypyridin-3-yl]methoxy}-5-phenyl-1-{[(propan-2-yl)oxy]carbonyl}pyrrolidine-2-carboxylic acid], the “Maximum % activity (with co-corrector)” value was “++ (≥150 and <350)”; the “Maximum % activity (without co-corrector)” value was “+ (<100)”. Under setting [1], the EC50 fell in the range of 1000 to 10000 nM. Besides, the EC50 under setting [2] lay in the range of 1000 to 10000 nM.
`COc1ncc(C(F)(F)F)cc1CO[C@H]1[C@H](C(C)(C)C)[C@@H](C(=O)O)N(C(=O)OC(C)C)[C@H]1c1ccccc1Br` [Example 86, (2S,3R,4S,5S)-5-(2-bromophenyl)-3-tert-butyl-4-{[2-methoxy-5-(trifluoromethyl)pyridin-3-yl]methoxy}-1-{[(propan-2-yl)oxy]carbonyl}pyrrolidine-2-carboxylic acid]: the “Maximum % activity (with co-corrector)” value is “+++ (≥350)”; the “Maximum % activity (without co-corrector)” value was “++ (≥100 and <200)”. Also, under setting [1], the EC50 was 1000 to 10000 nM. Also, under setting [2], the EC50 was under 1000 nM.
On to `COc1ncc(C(F)(F)F)cc1CO[C@H]1[C@H](C(C)(C)C)[C@@H](C(=O)O)N(C(=O)OC(C)C)[C@H]1c1ccccc1C(C)C` [Example 87, (2S,3R,4S,5S)-3-tert-butyl-4-{[2-methoxy-5-(trifluoromethyl)pyridin-3-yl]methoxy}-1-{[(propan-2-yl)oxy]carbonyl}-5-[2-(propan-2-yl)phenyl]pyrrolidine-2-carboxylic acid], for which the “Maximum % activity (with co-corrector)” value is on record as “+++ (≥350)”; the “Maximum % activity (without co-corrector)” value is “++ (≥100 and <200)”. For the same compound, the EC50 under setting [1] was in the range of 1000 to 10000 nM. Also, under setting [2], the EC50 lay in the range of 1000 to 10000 nM.
Turning to `COc1ncc(C(F)(F)F)cc1CO[C@H]1[C@H](C(C)(C)C)[C@@H](C(=O)O)N(C(=O)[C@@H]2CCCO2)[C@H]1c1ccccc1` [Example 88, (2S,3R,4S,5S)-3-tert-butyl-4-{[2-methoxy-5-(trifluoromethyl)pyridin-3-yl]methoxy}-1-[(2S)-oxolane-2-carbonyl]-5-phenylpyrrolidine-2-carboxylic acid], the “Maximum % activity (with co-corrector)” value is listed as “+++ (≥350)”; the “Maximum % activity (without co-corrector)” value was “++ (≥100 and <200)”. Also, the EC50 under setting [1] was 1000 to 10000 nM. For the same compound, under setting [2], the EC50 was under 1000 nM.
Consider `COc1ncc(C(F)(F)F)cc1CO[C@H]1[C@H](C(C)(C)C)[C@@H](C(=O)O)N(C(=O)[C@@H]2CCCCO2)[C@H]1c1ccccc1` [Example 89, (2S,3R,4S,5S)-3-tert-butyl-4-{[2-methoxy-5-(trifluoromethyl)pyridin-3-yl]methoxy}-1-[(2S)-oxane-2-carbonyl]-5-phenylpyrrolidine-2-carboxylic acid], for which the “Maximum % activity (with co-corrector)” value is “+++ (≥350)”; the “Maximum % activity (without co-corrector)” value was “++ (≥100 and <200)”. In addition, the EC50 under setting [1] lay in the range of 1000 to 10000 nM. The EC50 under setting [2] was under 1000 nM.
Consider `C=CCOC(=O)N1[C@H](C(=O)O)[C@@H](C(C)(C)C)[C@H](OCc2cc(C(F)(F)F)cnc2OC)[C@@H]1c1ccccc1` [Example 90, (2S,3R,4S,5S)-3-tert-butyl-4-{[2-methoxy-5-(trifluoromethyl)pyridin-3-yl]methoxy}-5-phenyl-1-{[(prop-2-en-1-yl)oxy]carbonyl}pyrrolidine-2-carboxylic acid], for which the “Maximum % activity (with co-corrector)” value was “+++ (≥350)” and the “Maximum % activity (without co-corrector)” value was “+ (<100)”. Moreover, under setting [1], the EC50 is 1000 to 10000 nM. In addition, the EC50 under setting [2] was in the range of 1000 to 10000 nM.
On to `COc1ncc(C(F)(F)F)cc1CO[C@H]1[C@H](C(C)(C)C)[C@@H](C(=O)O)N(C(=O)[C@H]2CCCCO2)[C@H]1c1ccccc1` [Example 91, (2S,3R,4S,5S)-3-tert-butyl-4-{[2-methoxy-5-(trifluoromethyl)pyridin-3-yl]methoxy}-1-[(2R)-oxane-2-carbonyl]-5-phenylpyrrolidine-2-carboxylic acid], for which the “Maximum % activity (with co-corrector)” value is listed as “+++ (≥350)”; the “Maximum % activity (without co-corrector)” value was “++ (≥100 and <200)”. Also, the EC50 under setting [1] is 1000 to 10000 nM. The EC50 under setting [2] lay in the range of 1000 to 10000 nM.
